The text below walks through data of publication PMC6934184, “Selective DNA-PKcs inhibition extends the therapeutic index of localized radiotherapy and chemotherapy” (The Journal of Clinical Investigation, 2019).

The assay has as its target T1, CSNK2A2 (CK2 alpha 2) (Homo sapiens, UniProt P19784).
T1 construct: purchased Thermo Fisher Scientific (Life Technologies) SelectScreen
Briefly: SelectScreen Z'LYTE. It is filed as biochemical. A digest of the protocol:
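NU5455 was profiled across the SelectScreen Broad panel of kinase activity and binding assays. Z'LYTE reactions such as CSF1R ran at apparent Km ATP, while the Adapta CAMK1 assay used ATP listed as 10. Values are given as percent.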

T1 sequence (P19784 whole entry): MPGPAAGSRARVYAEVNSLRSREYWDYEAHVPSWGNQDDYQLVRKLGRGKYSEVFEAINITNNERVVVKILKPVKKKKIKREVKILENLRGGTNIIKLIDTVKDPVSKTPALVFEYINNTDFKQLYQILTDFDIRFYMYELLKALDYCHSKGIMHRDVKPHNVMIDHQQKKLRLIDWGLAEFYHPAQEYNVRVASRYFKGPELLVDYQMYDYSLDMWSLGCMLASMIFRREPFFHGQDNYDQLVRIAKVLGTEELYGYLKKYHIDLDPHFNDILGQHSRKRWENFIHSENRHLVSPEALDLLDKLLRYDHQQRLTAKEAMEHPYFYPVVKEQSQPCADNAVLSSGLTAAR

As to `CN(C(=O)CN1CCOCC1)c1ccc2sc3c(-c4cccc5c(=O)cc(N6CC7CCC(C6)O7)oc45)cccc3c2c1` [NU5455], testing at 1 µM gave an inhibition of 8.7%.

Usually inhibition stands for the change of the read-out against control, counted positive when it falls. The low end stands for a weak effect, the high end for a strong effect.
